Measured values taken from paper PMC6366420, “Design and synthesis of 4-piperazinyl quinoline derived urea/thioureas for anti-breast cancer activity by a hybrid pharmacophore approach” (Journal of Enzyme Inhibition and Medicinal Chemistry, 2019).
Read-outs that look alike come from different tables or passages of the source.

How the values were obtained:
MDA-MB231 = assay: SRB antiproliferative assay, MDA-MB231; assay type: cell-based, human; settings: read-out: GI50 MDA-MB231
Experimental: (§1) The human breast cancer cell lines MDA-MB468, MDA-MB231 and MCF-7 were purchased from ATCC and maintained in RPMI 1640 medium supplemented with 10% fetal bovine serum (Hyclone, Logan UT) and 2 mM L-glutamine. MCF10A and 184B5 immortalised breast cells were purchased from ATCC and maintained in mammary epithelial basal medium supplemented with an MEGM mammary epithelial singlequot kit (Cambrex). Cells were grown at 37 °C with 5% CO2, 95% air under the humidified conditions. Cell line authentication was carried out by Genetica DNA Laboratories (Burlington, NC) using a short tandem repeat profiling method (March 2015; July 2015; September 2016).
(§2) Cell cytotoxic effects were determined by a SRB-based protocol[2]^,[25].
(§3) The newly synthesised 4-piperazinylquinoline compounds (5–30) were evaluated for their antiproliferative effects using three breast cancer cell lines, for which the compounds were diluted to achieve seven different concentrations ranging from […]. Followed by 48 h incubation with the compound, cells were treated with sulforhodamine B (SRB) to measure their growth/viability (% of the untreated control) by spectrophotometer. The total cellular macromolecules levels known to accurately reflect by UV reading of SRB staining. […] The reference compounds CQ and cisplatin were included for the comparison.

MDA-MB468 = assay: SRB antiproliferative assay, MDA-MB468; assay type: cell-based, human; settings: read-out: GI50 MDA-MB468
Experimental: as §1, §2, §3

MCF7 = assay: SRB antiproliferative assay, MCF7; assay type: cell-based, human; settings: read-out: GI50 MCF7
Experimental: as §1, §2, §3

184B5 = assay: SRB antiproliferative assay, 184B5 non-cancer breast cells; assay type: cell-based, human; settings: read-out: GI50 184B5
Experimental: as §1, §2, §3
(§4) We further assessed their antiproliferative effects on two non-cancer immortalised cell lines (184B5 and MCF10A). […] The antiproliferative effects of compound 23 on cancer cells are thus 7-fold (MDA-MB468 vs MCF10A) to 11-fold (MDA-MB231 vs 184B5) higher than matching non-cancer breast cells, which may indicate that compound 23 could potentially be safer than other compounds. Therefore, we examined it further to gain insights into its molecular mechanism of action.

MCF10A = assay: SRB antiproliferative assay, MCF10A non-cancer breast cells; assay type: cell-based, human; settings: read-out: GI50 MCF10A
Experimental: as §1, §2, §3, §4

[1] = system: breast cancer and non-cancer breast cell lines; assay: SRB antiproliferative comparison of breast cancer and non-cancer breast cell lines; assay type: cell-based, human; settings: for higher activity than the reference compounds cisplatin and CQ: breast cancer cell lines, GI50 comparison; for antigrowth effect against cancer versus non-cancer cells (in words): three breast cancer lines vs 184B5 and MCF10A
Experimental: as §1, §2, §3, §4

[2] = Homo sapiens, MDA-MB-231, 48 h, SRB, 48 h incubation, MDA-MB231 triple-negative breast cancer cells
[3] = Homo sapiens, MDA-MB-468, 48 h, SRB, 48 h incubation, MDA-MB468 breast cancer cells
[4] = Homo sapiens, SRB, 48 h incubation, MCF7 breast cancer cells
[5] = Homo sapiens, SRB, 48 h incubation, 184B5 non-cancer immortalised breast cells
[6] = Homo sapiens, MCF-10A, SRB, 48 h incubation, MCF10A non-cancer immortalised breast cells

Row | Structure (SMILES) | GI50 (MDA-MB231; Homo sapiens, MDA-MB-231, 48 h) [µM] | GI50 (MDA-MB468; Homo sapiens, MDA-MB-468, 48 h) [µM] | GI50 (MCF7; Homo sapiens, MCF7, 48 h) [µM] | GI50 (184B5; Homo sapiens, 184B5, 48 h) [µM] | GI50 (MCF10A; Homo sapiens, MCF-10A, 48 h) [µM] | GI50 (MDA-MB231; SRB, 48 h incubation, MDA-MB231 triple-negative breast cancer cells) [µM] | GI50 (MDA-MB468; SRB, 48 h incubation, MDA-MB468 breast cancer cells) [µM] | GI50 (MCF7; SRB, 48 h incubation, MCF7 breast cancer cells) [µM] | GI50 (184B5; SRB, 48 h incubation, 184B5 non-cancer immortalised breast cells) [µM] | GI50 (MCF10A; SRB, 48 h incubation, MCF10A non-cancer immortalised breast cells) [µM] | GI50 (MDA-MB231; [2]) [µM] | GI50 (MDA-MB468; [3]) [µM] | GI50 (MCF7; [4]) [µM] | GI50 (184B5; [5]) [µM] | GI50 (MCF10A; [6]) [µM] | higher activity than the reference compounds cisplatin and CQ [1] | antigrowth effect against cancer versus non-cancer cells (in words) [1] | melting point [°C]
1 | CCN(CC)CCCC(C)Nc1ccnc2cc(Cl)ccc12 (centres unmarked) [CQ, Chloroquine, reference compound] | 22.5 ± 1.4 | 28.6 ± 0.2 | 38.4 ± 0.3 | 76.1 ± 0.2 | 81.3 ± 1.4 | – | – | – | – | – | – | – | – | – | – | – | – | –
2 | N.N.[Cl][Pt][Cl] [Cisplatin, reference compound] | – | – | – | – | – | 23.6 ± 0.2 | 31 ± 0.3 | 25.8 ± 0.7 | 25.5 ± 0.6 | 51.5 ± 0.6 | – | – | – | – | – | – | – | –
3 | O=C(Nc1ccccc1)N1CCN(c2ccnc3cc(Cl)ccc23)CC1 [Compound 5, 4-(7-Chloro-quinolin-4-yl)-piperazine-1-carboxylic acid phenylamide] | – | – | – | – | – | – | – | – | – | – | 5.3 ± 0.5 | 4.7 ± 0.5 | 6.6 ± 0.6 | 14.1 ± 0.9 | 11.8 ± 1.4 | 4-8 fold | much stronger activities against cancer than non-cancer cells | 142 to 143
4 | Cc1ccc(C)c(NC(=O)N2CCN(c3ccnc4cc(Cl)ccc34)CC2)c1 [Compound 6, 4-(7-Chloro-quinolin-4-yl)-piperazine-1-carboxylic acid (2,5-dimethyl-phenyl)-amide] | – | – | – | – | – | – | – | – | – | – | 50.6 ± 3.2 | 35.5 ± 1.3 | 28.9 ± 1.4 | 19.8 ± 1 | 18.8 ± 1.3 | – | higher activity against non-cancer cells than cancer cells | 118 to 119
5 | O=C(Nc1ccc(C(F)(F)F)cc1)N1CCN(c2ccnc3cc(Cl)ccc23)CC1 [Compound 7, 4-(7-Chloro-quinolin-4-yl)-piperazine-1-carboxylic acid (4-trifluoromethyl-phenyl)-amide] | – | – | – | – | – | – | – | – | – | – | 21.8 ± 1.5 | 19.8 ± 0.8 | 16.6 ± 1.2 | 4.7 ± 0.3 | 4.6 ± 0.3 | – | higher activity against non-cancer cells than cancer cells | –
6 | O=C(Nc1c(Cl)cc(Cl)cc1Cl)N1CCN(c2ccnc3cc(Cl)ccc23)CC1 [Compound 8, 4-(7-Chloro-quinolin-4-yl)-piperazine-1-carboxylic acid (2,4,6-trichloro-phenyl)-amide] | – | – | – | – | – | – | – | – | – | – | 29.1 ± 1.7 | 30.4 ± 2 | 23.7 ± 2.4 | 22.3 ± 1.7 | 23.7 ± 1 | – | comparable against cancer and non-cancer cells | 168 to 169
7 | O=C(Nc1cccc2ccccc12)N1CCN(c2ccnc3cc(Cl)ccc23)CC1 [Compound 9, 4-(7-Chloro-quinolin-4-yl)-piperazine-1-carboxylic acid naphthalen-1-ylamide] | – | – | – | – | – | – | – | – | – | – | 9.1 ± 1 | 7.1 | 9.4 ± 0.8 | 21.8 ± 1 | 21.8 ± 1 | 4-8 fold | much stronger activities against cancer than non-cancer cells | 138 to 139
8 | O=C(NC1CCCCC1)N1CCN(c2ccnc3cc(Cl)ccc23)CC1 [Compound 10, 4-(7-Chloro-quinolin-4-yl)-piperazine-1-carboxylic acid cyclohexylamide] | – | – | – | – | – | – | – | – | – | – | 20.8 ± 1.3 | 10.9 ± 0.8 | 6 ± 0.5 | 16.3 ± 1 | 15.7 ± 1.3 | – | comparable against cancer and non-cancer cells | 112 to 113
9 | O=C(Nc1ccccc1)N1CCN(c2ccnc3cc(C(F)(F)F)ccc23)CC1 [Compound 11, 4-(7-Trifluoromethyl-quinolin-4-yl)-piperazine-1-carboxylic acid phenylamide] | – | – | – | – | – | – | – | – | – | – | 20.6 ± 1.4 | 57.6 ± 3.2 | 11 ± 0.6 | 12.2 ± 1.3 | 21.1 ± 1.6 | – | comparable against cancer and non-cancer cells | 146 to 147
10 | Cc1ccc(C)c(NC(=O)N2CCN(c3ccnc4cc(C(F)(F)F)ccc34)CC2)c1 [Compound 12, 4-(7-Trifluoromethyl-quinolin-4-yl)-piperazine-1-carboxylic acid (2,5-dimethyl-phenyl)-amide] | – | – | – | – | – | – | – | – | – | – | 39.6 ± 2.1 | 21.7 ± 1 | 22.5 ± 1.4 | 7.6 ± 0.7 | 8.8 ± 0.9 | – | higher activity against non-cancer cells than cancer cells | 108 to 109
11 | O=C(Nc1ccc(C(F)(F)F)cc1)N1CCN(c2ccnc3cc(C(F)(F)F)ccc23)CC1 [Compound 13, 4-(7-Trifluoromethyl-quinolin-4-yl)-piperazine-1-carboxylic acid (4-trifluoromethyl-phenyl)-amide] | – | – | – | – | – | – | – | – | – | – | 15.3 ± 1.3 | 2.7 ± 0.1 | 2 ± 0.1 | 1.1 ± 0.1 | 1 ± 0.1 | – | higher activity against non-cancer cells than cancer cells | 154 to 155
12 | O=C(Nc1c(Cl)cc(Cl)cc1Cl)N1CCN(c2ccnc3cc(C(F)(F)F)ccc23)CC1 [Compound 14, 4-(7-Trifluoromethyl-quinolin-4-yl)-piperazine-1-carboxylic acid (2,4,6-trichloro-phenyl)-amide] | – | – | – | – | – | – | – | – | – | – | 21.1 ± 1.3 | 22.5 ± 0.2 | 12.6 ± 1.2 | 33.2 ± 2.1 | 17.4 ± 0.5 | – | comparable against cancer and non-cancer cells | 142 to 143
13 | O=C(Nc1cccc2ccccc12)N1CCN(c2ccnc3cc(C(F)(F)F)ccc23)CC1 [Compound 15, 4-(7-Trifluoromethyl-quinolin-4-yl)-piperazine-1-carboxylic acid naphthalen-1-ylamide] | – | – | – | – | – | – | – | – | – | – | 17.8 ± 1 | 9.6 ± 0.9 | 7.5 ± 0.6 | 27.9 ± 1.7 | 11.1 ± 0.9 | – | comparable against cancer and non-cancer cells | 127 to 128
14 | O=C(NC1CCCCC1)N1CCN(c2ccnc3cc(C(F)(F)F)ccc23)CC1 [Compound 16, 4-(7-Trifluoromethyl-quinolin-4-yl)-piperazine-1-carboxylic acid cyclohexylamide] | – | – | – | – | – | – | – | – | – | – | 20.8 ± 2.3 | 12.7 ± 0.5 | 4.9 ± 0.3 | 20.8 ± 1.4 | 20.9 ± 1 | – | comparable against cancer and non-cancer cells | 132 to 133
15 | S=C(Nc1ccccc1)N1CCN(c2ccnc3cc(Cl)ccc23)CC1 [Compound 17, 4-(7-Chloro-quinolin-4-yl)-piperazine-1-carbothioic acid phenylamide] | – | – | – | – | – | – | – | – | – | – | 4.8 ± 0.2 | 11.8 ± 0.6 | 4.9 ± 0.3 | 19.2 ± 1.6 | 13.9 ± 1.3 | – | much stronger activities against cancer than non-cancer cells | 171 to 172
16 | Cc1cccc(C)c1NC(=S)N1CCN(c2ccnc3cc(Cl)ccc23)CC1 [Compound 18, 4-(7-Chloro-quinolin-4-yl)-piperazine-1-carbothioic acid (2,6-dimethyl-phenyl)-amide] | – | – | – | – | – | – | – | – | – | – | 9.6 ± 0.5 | 7.8 ± 0.8 | 7.3 ± 0.5 | 16.7 ± 1 | 52.3 ± 2.9 | – | much stronger activities against cancer than non-cancer cells | 138 to 139
17 | FC(F)(F)c1ccc(NC(=S)N2CCN(c3ccnc4cc(Cl)ccc34)CC2)cc1 [Compound 19, 4-(7-Chloro-quinolin-4-yl)-piperazine-1-carbothioic acid (4-trifluoromethyl-phenyl)-amide] | – | – | – | – | – | – | – | – | – | – | 14.9 ± 1.1 | 7.8 ± 0.8 | 4.9 ± 0.4 | 3.7 ± 0.1 | 3.1 ± 0.1 | – | higher activity against non-cancer cells than cancer cells | 112 to 113
